Results on one compound are retold here after patent publication US20260256870A1, “SKIN COMPOSITION” (Eaderm Co., Ltd., priority 2019, published 2026).

“Also recorded” adds a separate entry of the source.

For experiment [1], the system named is SDS-induced skin roughness, medial forearm. As to the kind of experiment: Human skin roughness induced by 10% SDS (Example 18). In kind it is in vivo. The procedure:
Two subjects were administered with substances that promote the self-renewal ability of epidermal stem cells (apocynin, ebselen, and celecoxib) using a test of skin roughness induced by 10% sodium lauryl sulfate (SDS) solution (a test that serves as a standard for chemical-induced skin damage in humans), and the effect of the skin roughness-preventing or -ameliorating agent in improving skin roughness was evaluated. Six 1.5-cm square areas were placed on the subject's medial forearm, and each was subjected to the treatments below. • SDS non-treated (70% ethanol treatment) group • SDS treatment+solvent (50% ethanol/PBS) application group. • SDS treatment+apocynin (200 μM) solution application group • SDS treatment+ebselen (0.25%) solution application group. • SDS treatment+celecoxib (2%) solution application group A cotton ball permeated with 500 μL of 10% SDS solution (dissolved in 70% ethanol) was applied to the test area for 30 minutes each on day 0 and day 1. Apocynin was applied on day 0 before SDS treatment, applied after treatment, and then applied to the test area once daily until day 9. The TEWL at each test area was measured before and after SDS treatment, and daily from day 1 to day 7. For each area, the TEWL value before SDS treatment was subtracted from the TEWL value on the measurement day, and this value was defined as “ΔTEWL”, and this value was used for evaluation. The test area was photographed with a digital camera and with PRIMOS-CR (Canfield Scientific, Inc., USA, Integral Corporation), a high-resolution three-dimensional image analyzer. For the PRIMOS images, the Primos OMC3_22 software was used to measure the degree of skin roughness in terms of “Ry (maximum height)” and “Rz (ten-point average roughness)”, which are parameters representing surface roughness in the height direction. For each site, the value obtained by subtracting the Rz or Ry value of the SDS non-treated control from the Rz or Ry value on the measurement day was defined as “ΔRz” and “ΔRy”, and these values were used for evaluation.

The test system of a further experiment is COL17A1. As to the kind of experiment: COL17A1 expression in human epidermal keratinocytes by high content imaging (HCS). In kind it is cell-based. The method in brief: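 Human epidermal keratinocytes cultured 48 h with test reagents, then immunostained for COL17A1. Per-cell fluorescence intensity quantified by high content imaging, with DAPI-based cell counting.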

The subject of experiment [2] is full thickness wounds in the skin of rodent tails. Nature of the experiment: Full thickness wound healing in tail skin. In kind it is in vivo, mice. Particulars: day 0, day 14, day 21 (FIG. 12). The procedure: To test the above hypothesis, the present inventors performed a full-layer wound healing experiment using the tail skin of aged wild-type mice. […] Forced expression of hCOL17A1 by basal layer keratinocytes in mice also promoted wound healing (FIG. 12). […] To confirm the beneficial effects in vivo, these drugs were administered to full thickness wounds in the skin of rodent tails.

The subject of experiment [3] is human epidermal keratinocytes. Nature of the experiment: Colony formation assay using human epidermal keratinocytes. In kind it is cell-based. An excerpt: To test whether COL17A1-mediated SCD maintains clonal proliferation of epidermal stem cell clones, the present inventors used a colony formation assay, which is an in vitro assay said to be the gold standard for assessing the self-renewal ability of epidermal stem cells, including cells in the tail epidermis.

The mark [4] stands for this setting: apocynin 200 μM, ebselen 0.25%, celecoxib 2%.

Take `COc1cc(C(C)=O)ccc1O` [Apocynin]: in experiment [1] (setting [4]), the “skin roughness (analysis of skin texture from high-resolution photographs)” value is “significantly reduced”, the ΔRy result was “significantly decreased”, the ΔRz entry was “significantly decreased” and the ΔTEWL entry was “significantly decreased”. Besides, the “pigmentation / healing of the affected area” value in experiment [1] (day 16, apocynin 200 μM (FIG. 31)) was “healed; also recorded: almost no pigmentation”. For the same compound, the “COL17A1 expression level (control ratio)” value in the experiment with COL17A1 (Table 1, human epidermal keratinocytes, 48 hours after addition of reagents, fluorescence intensity per cell) is on record as “⊚ (one double circle (⊚) represents a 1.2-fold or greater increase)”. The “COL17A1 expression / amount of COL17A1 in cultured keratinocytes compared to the control” value in the experiment on COL17A1 (in vitro, HCS (FIG. 15)) is on record as “significantly increased; also recorded: maintain or induce the COL17A1 expression; also recorded: induce the COL17A1 expression”. The “wound repair (unrepaired wound area)” value in experiment [2] is “significantly accelerated; also recorded: significantly promote the wound repair process”. In experiment [3] (Table 1), the “Colony area (control ratio)” value is listed as “⊚ (one double circle (⊚) indicates maintenance of 1.0-1.2-fold)” and the “Colony number (control ratio)” value is reported as “⊚ (one double circle (⊚) indicates maintenance of 1.0-1.2-fold)”. Besides, the “area of colonies per well” value in experiment [3] (compared to the control (FIG. 16)) is on record as “significantly increased”. The number of colonies entry in experiment [3] (compared to the control, n=3 wells (FIG. 13, FIG. 16)) is given as “significantly increased”. Moreover, the “average size of the top five colonies” value in experiment [3] (compared to the control, n=3 wells (FIG. 14)) was “significantly increased”. Moreover, the colony size result in experiment [3] (human epidermal keratinocytes) is “significantly increased”. Besides, the “number of colonies with a diameter greater than 2 mm” value in experiment [3] (n=3 wells (FIG. 13 right)) is “significantly increased”.
